In this experiment the target is PARP1 (Homo sapiens, UniProt P09874). Briefly: enzyme inhibition assay with recombinant human PARP1. Format: biochemical.

The values that follow come from publication PMC4028821 (Chemical communications (Cambridge, England), 2014).

Sequence of PARP1 (P09874 2-1014): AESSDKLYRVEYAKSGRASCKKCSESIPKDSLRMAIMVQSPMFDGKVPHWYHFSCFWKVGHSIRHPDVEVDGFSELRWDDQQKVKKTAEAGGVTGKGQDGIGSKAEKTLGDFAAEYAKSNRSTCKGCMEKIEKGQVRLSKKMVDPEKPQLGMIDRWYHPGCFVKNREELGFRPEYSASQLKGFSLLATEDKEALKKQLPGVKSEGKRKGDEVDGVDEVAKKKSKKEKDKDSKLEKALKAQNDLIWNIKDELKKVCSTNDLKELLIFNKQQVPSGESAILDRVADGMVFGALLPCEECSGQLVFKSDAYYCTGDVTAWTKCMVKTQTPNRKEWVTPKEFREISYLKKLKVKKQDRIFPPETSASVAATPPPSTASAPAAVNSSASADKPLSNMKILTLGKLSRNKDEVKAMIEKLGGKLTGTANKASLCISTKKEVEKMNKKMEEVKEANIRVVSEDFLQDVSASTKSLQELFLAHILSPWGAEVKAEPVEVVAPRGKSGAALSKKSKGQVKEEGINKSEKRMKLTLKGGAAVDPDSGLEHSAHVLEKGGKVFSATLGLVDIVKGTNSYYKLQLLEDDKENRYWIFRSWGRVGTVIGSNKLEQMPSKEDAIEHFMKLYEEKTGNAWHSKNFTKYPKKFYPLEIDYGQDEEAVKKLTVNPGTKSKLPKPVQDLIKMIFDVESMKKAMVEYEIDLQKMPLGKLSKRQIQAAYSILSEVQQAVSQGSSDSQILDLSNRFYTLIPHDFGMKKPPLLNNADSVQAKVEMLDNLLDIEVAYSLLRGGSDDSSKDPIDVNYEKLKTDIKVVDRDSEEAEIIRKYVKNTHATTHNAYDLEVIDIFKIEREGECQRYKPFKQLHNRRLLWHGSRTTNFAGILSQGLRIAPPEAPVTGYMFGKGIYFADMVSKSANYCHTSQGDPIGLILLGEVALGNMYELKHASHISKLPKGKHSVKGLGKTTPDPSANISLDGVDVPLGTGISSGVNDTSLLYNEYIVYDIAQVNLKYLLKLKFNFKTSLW

Consider Olaparib-SiR-COOH [compound 10], for which the IC50 – broadly, the point on the concentration scale where inhibition reaches its midpoint – was 0.1 µM.

Consider Olaparib-SiR-Me [compound 6], for which the IC50 was found to be 0.0992 µM.
